What all share (type): biochemical
One test addresses T1, human EGFR (WT) (Homo sapiens, UniProt P00533).
T1 construct: purchased Carna Biosciences Inc., Japan
Briefly: Inhibitory activity against EGFR (WT) kinase. The following applies: Test Example 1, Table 6; ATP 1.5 μM. A digest of the protocol:
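Purified recombinant human wild-type EGFR kinase, with ATP at 1.5 μM final. Compound inhibition of kinase activity read out and fitted to give IC50 (nM).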

Test [1] has as its target T2, human EGFR (L858R/T790M/C797S) (Homo sapiens, UniProt P00533, C797S/L858R/T790M).
T2 construct: made in house; host or cells: Sf9 insect cells, baculovirus
Briefly: Inhibitory activity against EGFR (L858R/T790M/C797S) kinase. The following applies: Test Example 1, Table 3; ATP 0.5 μM. In short, it runs like this: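 GST-tagged cytoplasmic domain of human EGFR L858R/T790M/C797S, expressed in Sf9 insect cells via baculovirus and glutathione-purified. Kinase reaction run at 0.5 μM ATP final; IC50 (nM) determined per compound.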

The next test addresses T3, human EGFR (L858R/C797S) (Homo sapiens, UniProt P00533, C797S/L858R).
T3 construct: purchased SignalChem
In words: Inhibitory activity against EGFR (L858R/C797S) kinase. The following applies: Test Example 1, Table 5; ATP 4 μM, 90 minutes. A digest of the protocol:
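Purified recombinant human EGFR (C797S/L858R) kinase, final ATP 4 μM, 90-minute kinase reaction, otherwise per the EGFR (d746-750/C797S) protocol. IC50 (nM) determined from inhibition data.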

For test [2], the target named is T4, human EGFR (d746-750/C797S) (Homo sapiens, UniProt P00533, C797S/DEL746-750).
T4 construct: purchased SignalChem
In words: Inhibitory activity against EGFR (d746-750/C797S) kinase. The settings on record: Test Example 1, Table 4; ATP 14 μM, 60 minutes. A digest of the protocol: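 Recombinant human EGFR d746-750/C797S in 13.5 mM Tris pH 7.5 with 2 mM DTT and 0.009% Tween-20. Reaction ran 60 min with 14 μM ATP, 20 mM MgCl2 and 12.5 mM MnCl2, stopped by 40 mM EDTA. IC50 in nM.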

The structures appear in SMILES notation.

T2 sequence (P00533 with tags, fused parts or gaps T790M/C797S/L858R): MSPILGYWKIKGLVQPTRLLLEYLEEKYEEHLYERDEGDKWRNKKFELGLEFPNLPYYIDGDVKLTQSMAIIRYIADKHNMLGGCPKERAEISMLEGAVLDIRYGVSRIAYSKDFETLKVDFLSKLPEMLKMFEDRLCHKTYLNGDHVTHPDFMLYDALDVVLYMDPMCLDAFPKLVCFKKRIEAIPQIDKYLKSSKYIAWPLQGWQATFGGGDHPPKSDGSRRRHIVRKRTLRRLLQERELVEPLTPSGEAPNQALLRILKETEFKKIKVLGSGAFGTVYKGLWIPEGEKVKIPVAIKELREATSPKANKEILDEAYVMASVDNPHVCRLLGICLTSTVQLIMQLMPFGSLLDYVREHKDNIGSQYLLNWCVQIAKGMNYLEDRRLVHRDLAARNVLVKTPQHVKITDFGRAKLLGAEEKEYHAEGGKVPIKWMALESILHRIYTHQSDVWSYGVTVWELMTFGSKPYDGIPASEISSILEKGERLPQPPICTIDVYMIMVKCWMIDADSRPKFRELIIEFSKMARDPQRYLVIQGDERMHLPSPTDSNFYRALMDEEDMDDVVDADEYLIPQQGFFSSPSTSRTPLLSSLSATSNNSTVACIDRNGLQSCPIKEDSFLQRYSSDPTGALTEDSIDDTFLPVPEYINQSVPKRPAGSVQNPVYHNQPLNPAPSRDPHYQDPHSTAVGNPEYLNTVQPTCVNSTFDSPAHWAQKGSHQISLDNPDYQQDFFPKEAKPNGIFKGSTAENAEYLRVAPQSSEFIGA
T3 sequence (P00533 25-1210 C797S/L858R): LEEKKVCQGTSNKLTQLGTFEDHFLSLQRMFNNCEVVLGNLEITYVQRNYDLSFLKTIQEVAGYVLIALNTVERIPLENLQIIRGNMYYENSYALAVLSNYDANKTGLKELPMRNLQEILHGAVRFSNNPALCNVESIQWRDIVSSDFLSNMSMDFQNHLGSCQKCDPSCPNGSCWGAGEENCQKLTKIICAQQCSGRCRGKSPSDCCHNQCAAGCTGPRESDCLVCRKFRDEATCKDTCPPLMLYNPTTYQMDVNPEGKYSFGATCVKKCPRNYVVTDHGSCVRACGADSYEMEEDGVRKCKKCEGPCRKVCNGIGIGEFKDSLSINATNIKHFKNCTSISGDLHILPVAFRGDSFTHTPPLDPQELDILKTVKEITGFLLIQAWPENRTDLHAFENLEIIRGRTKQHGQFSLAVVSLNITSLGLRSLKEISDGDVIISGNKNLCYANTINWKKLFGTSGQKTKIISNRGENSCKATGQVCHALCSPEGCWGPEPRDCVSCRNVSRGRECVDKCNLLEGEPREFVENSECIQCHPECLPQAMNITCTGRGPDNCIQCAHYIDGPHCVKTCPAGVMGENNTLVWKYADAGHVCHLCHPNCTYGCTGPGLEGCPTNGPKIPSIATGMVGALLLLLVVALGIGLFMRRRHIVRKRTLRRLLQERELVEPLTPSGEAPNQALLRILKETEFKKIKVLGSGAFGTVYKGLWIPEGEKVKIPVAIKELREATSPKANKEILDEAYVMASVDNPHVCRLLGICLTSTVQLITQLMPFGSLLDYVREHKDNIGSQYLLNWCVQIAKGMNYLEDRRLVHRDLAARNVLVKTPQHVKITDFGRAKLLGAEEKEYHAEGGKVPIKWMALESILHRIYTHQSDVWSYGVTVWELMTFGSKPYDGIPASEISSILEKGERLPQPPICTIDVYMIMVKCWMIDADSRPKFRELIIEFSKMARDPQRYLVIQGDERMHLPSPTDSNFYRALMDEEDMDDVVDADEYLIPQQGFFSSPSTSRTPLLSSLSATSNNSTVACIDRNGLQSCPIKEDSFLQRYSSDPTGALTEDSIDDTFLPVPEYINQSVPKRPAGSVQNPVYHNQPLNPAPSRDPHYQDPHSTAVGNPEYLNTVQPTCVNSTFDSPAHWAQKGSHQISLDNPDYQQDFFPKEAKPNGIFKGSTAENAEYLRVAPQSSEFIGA
T1 sequence (P00533 25-1210): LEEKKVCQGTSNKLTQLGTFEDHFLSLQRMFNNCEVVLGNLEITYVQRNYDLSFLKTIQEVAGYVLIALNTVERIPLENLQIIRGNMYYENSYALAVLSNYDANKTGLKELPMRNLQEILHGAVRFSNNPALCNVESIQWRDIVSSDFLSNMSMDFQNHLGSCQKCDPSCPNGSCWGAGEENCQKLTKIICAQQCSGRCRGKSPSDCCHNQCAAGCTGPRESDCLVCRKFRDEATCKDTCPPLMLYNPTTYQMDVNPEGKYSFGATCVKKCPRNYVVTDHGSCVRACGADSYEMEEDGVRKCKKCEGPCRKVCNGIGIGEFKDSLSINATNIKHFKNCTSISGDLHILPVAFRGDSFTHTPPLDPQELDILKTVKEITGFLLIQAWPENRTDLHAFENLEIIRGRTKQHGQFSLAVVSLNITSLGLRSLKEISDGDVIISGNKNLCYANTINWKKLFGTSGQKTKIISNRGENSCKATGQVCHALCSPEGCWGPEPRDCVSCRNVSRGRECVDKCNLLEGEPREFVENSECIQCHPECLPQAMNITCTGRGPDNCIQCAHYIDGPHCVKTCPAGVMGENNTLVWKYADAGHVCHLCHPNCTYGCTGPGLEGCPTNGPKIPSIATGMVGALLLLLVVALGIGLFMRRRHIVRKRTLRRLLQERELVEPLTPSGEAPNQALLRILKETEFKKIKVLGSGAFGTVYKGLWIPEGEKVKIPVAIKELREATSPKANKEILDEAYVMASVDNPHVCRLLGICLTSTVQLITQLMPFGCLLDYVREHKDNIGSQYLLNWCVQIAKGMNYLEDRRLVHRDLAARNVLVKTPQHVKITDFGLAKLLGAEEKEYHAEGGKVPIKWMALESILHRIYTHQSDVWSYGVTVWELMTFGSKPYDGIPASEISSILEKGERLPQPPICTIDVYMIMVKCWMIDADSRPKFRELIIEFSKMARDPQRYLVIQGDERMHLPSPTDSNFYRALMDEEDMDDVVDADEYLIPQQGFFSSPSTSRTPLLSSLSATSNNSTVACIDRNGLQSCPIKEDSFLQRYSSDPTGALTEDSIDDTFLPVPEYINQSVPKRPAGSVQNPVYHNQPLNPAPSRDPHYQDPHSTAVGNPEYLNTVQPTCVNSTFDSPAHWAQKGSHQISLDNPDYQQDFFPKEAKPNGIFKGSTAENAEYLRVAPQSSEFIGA
T4 sequence (P00533 with tags, fused parts or gaps DEL746-750/C797S): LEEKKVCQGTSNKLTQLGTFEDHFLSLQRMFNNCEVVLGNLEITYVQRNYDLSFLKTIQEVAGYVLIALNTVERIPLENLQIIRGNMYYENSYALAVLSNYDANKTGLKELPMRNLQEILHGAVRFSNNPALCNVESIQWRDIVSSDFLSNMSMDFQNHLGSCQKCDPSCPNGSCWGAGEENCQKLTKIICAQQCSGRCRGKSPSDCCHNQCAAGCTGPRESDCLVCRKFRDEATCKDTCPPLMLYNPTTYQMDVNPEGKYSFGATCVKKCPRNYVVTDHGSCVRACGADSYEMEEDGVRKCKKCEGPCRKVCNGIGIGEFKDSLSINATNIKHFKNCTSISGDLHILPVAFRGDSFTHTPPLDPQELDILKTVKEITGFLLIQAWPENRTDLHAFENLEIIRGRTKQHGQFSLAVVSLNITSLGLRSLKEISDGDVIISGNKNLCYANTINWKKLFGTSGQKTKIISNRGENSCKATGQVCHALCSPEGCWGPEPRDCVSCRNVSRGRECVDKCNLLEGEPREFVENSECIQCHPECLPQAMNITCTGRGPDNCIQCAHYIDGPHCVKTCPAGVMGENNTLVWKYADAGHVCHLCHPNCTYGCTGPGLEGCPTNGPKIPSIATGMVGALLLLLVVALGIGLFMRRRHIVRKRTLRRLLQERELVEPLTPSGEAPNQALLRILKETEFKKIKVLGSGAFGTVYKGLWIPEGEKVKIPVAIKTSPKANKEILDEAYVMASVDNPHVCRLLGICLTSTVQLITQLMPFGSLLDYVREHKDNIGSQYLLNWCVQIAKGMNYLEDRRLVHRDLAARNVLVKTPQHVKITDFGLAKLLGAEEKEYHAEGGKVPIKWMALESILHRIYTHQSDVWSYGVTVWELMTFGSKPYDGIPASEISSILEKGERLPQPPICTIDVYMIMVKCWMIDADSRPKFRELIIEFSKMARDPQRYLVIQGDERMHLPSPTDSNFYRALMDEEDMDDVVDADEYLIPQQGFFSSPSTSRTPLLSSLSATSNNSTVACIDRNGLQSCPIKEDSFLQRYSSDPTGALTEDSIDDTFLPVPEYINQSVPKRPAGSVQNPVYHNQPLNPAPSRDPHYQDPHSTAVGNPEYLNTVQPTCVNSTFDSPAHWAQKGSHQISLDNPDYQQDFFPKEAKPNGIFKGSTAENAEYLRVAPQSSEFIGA

`C#Cc1c(-c2cnc3ccccc3c2)c2c(N)ncnc2n1C12CCC(NC(C)=O)(CC1)C2` [Example 39, N-(4-(4-Amino-6-ethynyl-5-(quinolin-3-yl)-7H-pyrrolo[2,3-d]pyrimidin-7-yl)-bicyclo-[2.2.1]heptan-1-yl)acetamide]: the IC50 at human EGFR (WT) is 1.5 nM; in test [1], 0.36 nM; against human EGFR (L858R/C797S), 1.4 nM; in test [2], 0.75 nM.
For `C#Cc1c(-c2cnc3ccccc3c2)c2c(N)ncnc2n1C12CCC(NC(=O)c3ncco3)(CC1)C2` [Example 46], the IC50 at human EGFR (WT) came to 0.79 nM; in test [1], 0.41 nM; at human EGFR (L858R/C797S) it was 0.43 nM; in test [2] it was 0.43 nM.
On to `C#Cc1c(-c2cnc3ccccc3c2)c2c(N)ncnc2n1C12CCC(NC(=O)c3cnccn3)(CC1)C2` [Example 48], for which the IC50 was 0.75 nM at human EGFR (WT), less than 0.3 nM in test [1], 0.6 nM against human EGFR (L858R/C797S) and 0.46 nM in test [2].
Consider `C#Cc1c(-c2cnc3ccccc3c2)c2c(N)ncnc2n1C12CCC(NC(=O)c3nccs3)(CC1)C2` [Example 53], for which the IC50 on human EGFR (WT) stood at 1.9 nM; in test [1], 0.69 nM; on human EGFR (L858R/C797S), 1.2 nM; in test [2] it was 0.88 nM.
On to `C#Cc1c(-c2cnc3ccccc3c2)c2c(N)ncnc2n1C12CCC(NC(=O)c3ccco3)(CC1)C2` [Example 41], for which the IC50 came out at 2.1 nM against human EGFR (WT), 0.39 nM in test [1], 1.9 nM against human EGFR (L858R/C797S) and 1.4 nM in test [2].
As for `C#Cc1c(-c2cnc3ccccc3c2)c2c(N)ncnc2n1C12CCC(NC(=O)c3ccnn3C)(CC1)C2` [Example 24, N-(4-(4-Amino-6-ethynyl-5-(quinolin-3-yl)-7H-pyrrolo[2,3-d]pyrimidin-7-yl)bicyclo-[2.2.1]heptan-1-yl)-1-methyl-1H-pyrazole-5-carboxamide], the IC50 against human EGFR (WT) is 0.73 nM; in test [1], less than 0.3 nM; against human EGFR (L858R/C797S), 0.59 nM; in test [2] it was 0.5 nM.

For orientation: IC50 means the point on the concentration scale where inhibition reaches its midpoint. Read a high IC50 as weaker potency in that assay.

Source of the values: US11786534B2 (TAIHO PHARMACEUTICAL CO., LTD., priority 2019, dated 2023).
